In brackets after ≈: the same amount, converted by molar mass.
How the values were obtained:
Klebsiella pneumoniae = experiment: Antimicrobial activity against Klebsiella pneumoniae I.S.M. by tube dilution method; assay type: functional
[1] = tested on: Trichophyton mentagrophytes; experiment: Antimicrobial activity against Trichophyton mentagrophytes SKF 17410 by tube dilution method; assay type: functional
Clostridium perfringens = experiment: Antimicrobial activity against Clostridium perfringens ISS 30543 by tube dilution method; assay type: functional
Candida albicans = experiment: Antimicrobial activity against Candida albicans SKF 2270 by tube dilution method; assay type: functional
Streptococcus pneumoniae = experiment: Antimicrobial activity against Diplococcus pneumoniae UC41 by tube dilution method; assay type: functional
Streptococcus pyogenes = experiment: Antimicrobial activity against Streptococcus haemolyticus C 203 by tube dilution method; assay type: functional
Shigella sonnei = experiment: Antimicrobial activity against Shigella sonnei ATCC 9290 by tube dilution method; assay type: functional
[2] = tested on: Mycoplasmoides gallisepticum; experiment: Antimicrobial activity against Mycoplasma gallisepticum H21 C.Z.B. by tube dilution method; assay type: functional
Salmonella typhimurium = experiment: Antimicrobial activity against Salmonella typhimurium Kh by tube dilution method; assay type: functional, Salmonella enterica subsp. enterica serovar Typhimurium; conditions: Salmonella enterica
Staphylococcus aureus = experiment: Antimicrobial activity against Staphylococcus aureus Tour by tube dilution method; assay type: functional
[3] = tested on: Mycobacterium tuberculosis; experiment: Antimicrobial activity against Mycobacterium tuberculosis ATCC 9360 by tube dilution method; assay type: functional
Pseudomonas aeruginosa = experiment: Antimicrobial activity against Pseudomonas aeruginosa ATCC 10145 by tube dilution method; assay type: functional
Trichomonas vaginalis [4] = experiment: Trichomonastatic activity against Trichomonas vaginalis by tube dilution method; assay type: functional
Trichomonas vaginalis [5] = experiment: Trichomonacidal activity against Trichomonas vaginalis by tube dilution method; assay type: functional
Proteus vulgaris = experiment: Antimicrobial activity against Proteus vulgaris X19 H ATCC 881 by tube dilution method; assay type: functional
Escherichia coli = experiment: Antimicrobial activity against Escherichia coli SKF 12140 by tube dilution method; assay type: functional
Trichomonas vaginalis [6] = experiment: Ratio of metronidazole ED50 to compound ED50 for Trichomonas vaginalis infected in sc dosed mouse; assay type: functional
[7] = Toxicity in po dosed mouse infected with Trichomonas vaginalis; assay type: organism-based; conditions: in vivo
Trichomonas vaginalis [8] = experiment: Antimicrobial activity against Trichomonas vaginalis infected in sc dosed mouse; assay type: functional

Compound	MIC (Klebsiella pneumoniae) [µg/mL]	MIC [1] [µg/mL]	MIC (Clostridium perfringens) [µg/mL]	MIC (Candida albicans) [µg/mL]	MIC (Streptococcus pneumoniae) [µg/mL]	MIC (Streptococcus pyogenes) [µg/mL]	MIC (Shigella sonnei) [µg/mL]	MIC [2] [µg/mL]	MIC (Salmonella typhimurium) [µg/mL]	MIC (Staphylococcus aureus) [µg/mL]	MIC [3] [µg/mL]	MIC (Pseudomonas aeruginosa) [µg/mL]	MIC (Trichomonas vaginalis [4]) [µg/mL]	MIC (Trichomonas vaginalis [5]) [µg/mL]	MIC (Proteus vulgaris) [µg/mL]	MIC (Escherichia coli) [µg/mL]	Ratio ED50 (Trichomonas vaginalis [6])	LD50 [7] [mg/kg]	ED50 (Trichomonas vaginalis [8]) [mg/kg]
Cc1cnc(/N=C/C=C/c2cnc([N+](=O)[O-])n2C)n1C	> 20	> 20	10 (≈ 36.5 µM)	> 20	> 20	> 20	> 20	> 20	> 20	> 20	> 20	> 20	50 (≈ 182 µM)	100 (≈ 365 µM)	> 20	> 20	–	–	–
Cc1ccc(S(=O)(=O)OCCn2c(C)cnc2[N+](=O)[O-])cc1	> 100	> 100	50 (≈ 154 µM)	> 100	> 100	> 100	> 100	> 100	> 100	> 100	100 (≈ 307 µM)	> 100	50 (≈ 154 µM)	100 (≈ 307 µM)	> 100	> 100	>7	> 1000	–
Cn1c(/C=[N+](/C)[O-])cnc1[N+](=O)[O-]	50 (≈ 272 µM)	> 100	10 (≈ 54.3 µM)	> 100	50 (≈ 272 µM)	50 (≈ 272 µM)	20 (≈ 109 µM)	20 (≈ 109 µM)	20 (≈ 109 µM)	50 (≈ 272 µM)	50 (≈ 272 µM)	100 (≈ 543 µM)	100 (≈ 543 µM)	> 100	20 (≈ 109 µM)	10 (≈ 54.3 µM)	–	–	–
Cc1cc(-c2cnc([N+](=O)[O-])n2C)n(CCO)n1	> 100	> 100	100 (≈ 398 µM)	> 100	50 (≈ 199 µM)	50 (≈ 199 µM)	> 100	> 100	> 100	20 (≈ 79.6 µM)	> 100	> 100	10 (≈ 39.8 µM)	50 (≈ 199 µM)	> 100	50 (≈ 199 µM)	–	–	–
Br.CC(/C=C/c1cnc([N+](=O)[O-])n1C)=N\NC1=NCCN1	> 100	> 100	100	> 100	20	20	> 100	100	> 100	50	> 100	> 100	20	100	> 100	100	–	–	–
CCCCC(C(O)c1cnc([N+](=O)[O-])n1C)[N+](=O)[O-] (stereo unspecified)	100 (≈ 367 µM)	50 (≈ 184 µM)	20 (≈ 73.5 µM)	50 (≈ 184 µM)	100 (≈ 367 µM)	> 100	50 (≈ 184 µM)	50 (≈ 184 µM)	50 (≈ 184 µM)	50 (≈ 184 µM)	50 (≈ 184 µM)	20 (≈ 73.5 µM)	> 100	–	100 (≈ 367 µM)	50 (≈ 184 µM)	–	–	–
Cc1ncc([N+](=O)[O-])n1CCO [METRONIDAZOLE]	–	–	–	–	–	–	–	–	–	–	–	–	0.5 (≈ 2.92 µM)	2 (≈ 11.7 µM)	–	–	–	–	12.3
Cc1cnc([N+](=O)[O-])n1CCOS(C)(=O)=O	> 100	> 100	20 (≈ 80.2 µM)	> 100	> 100	100 (≈ 401 µM)	100 (≈ 401 µM)	> 100	100 (≈ 401 µM)	100 (≈ 401 µM)	> 100	> 100	50 (≈ 201 µM)	100 (≈ 401 µM)	> 100	100 (≈ 401 µM)	0.6	800	8.12
O=C1CN(/N=C/c2ccc([N+](=O)[O-])o2)C(=O)N1 [NITROFURANTOIN]	50 (≈ 210 µM)	–	–	–	1 (≈ 4.2 µM)	–	10 (≈ 42 µM)	–	20 (≈ 84 µM)	10 (≈ 42 µM)	50 (≈ 210 µM)	> 100	–	–	100 (≈ 420 µM)	5 (≈ 21 µM)	–	–	–
C=Cc1cnc([N+](=O)[O-])n1C	10 (≈ 65.3 µM)	50 (≈ 326 µM)	0.5 (≈ 3.26 µM)	100 (≈ 653 µM)	> 100	> 100	20 (≈ 131 µM)	–	5 (≈ 32.6 µM)	50 (≈ 326 µM)	20 (≈ 131 µM)	20 (≈ 131 µM)	1 (≈ 6.53 µM)	1 (≈ 6.53 µM)	100 (≈ 653 µM)	10 (≈ 65.3 µM)	3	480	14
CC(/C=C/c1cnc([N+](=O)[O-])n1C)=N\N(C)C	> 100	> 100	10 (≈ 42.1 µM)	> 100	> 100	> 100	> 100	> 100	> 100	100 (≈ 421 µM)	20 (≈ 84.3 µM)	> 100	20 (≈ 84.3 µM)	50 (≈ 211 µM)	> 100	50 (≈ 211 µM)	–	–	–
COC(=O)/C=C/c1cnc([N+](=O)[O-])n1C	> 100	100 (≈ 474 µM)	> 100	> 100	> 100	> 100	100 (≈ 474 µM)	> 100	100 (≈ 474 µM)	> 100	50 (≈ 237 µM)	> 100	10 (≈ 47.4 µM)	50 (≈ 237 µM)	> 100	50 (≈ 237 µM)	>2.8	> 1000	–
CC(=O)c1cnc([N+](=O)[O-])n1C	100 (≈ 591 µM)	50 (≈ 296 µM)	20 (≈ 118 µM)	> 100	20 (≈ 118 µM)	100 (≈ 591 µM)	50 (≈ 296 µM)	100 (≈ 591 µM)	100 (≈ 591 µM)	50 (≈ 296 µM)	50 (≈ 296 µM)	> 100	50 (≈ 296 µM)	> 100	100 (≈ 591 µM)	10 (≈ 59.1 µM)	–	–	–
C=Cn1c(C)cnc1[N+](=O)[O-]	> 100	> 100	> 100	> 100	> 100	> 100	> 100	> 100	> 100	> 100	> 100	> 100	20 (≈ 131 µM)	50 (≈ 326 µM)	> 100	> 100	0.6	75	–
Cn1c(C=O)cnc1[N+](=O)[O-]	10 (≈ 64.5 µM)	10 (≈ 64.5 µM)	10 (≈ 64.5 µM)	50 (≈ 322 µM)	20 (≈ 129 µM)	50 (≈ 322 µM)	20 (≈ 129 µM)	–	2 (≈ 12.9 µM)	50 (≈ 322 µM)	10 (≈ 64.5 µM)	10 (≈ 64.5 µM)	100 (≈ 645 µM)	> 100	50 (≈ 322 µM)	10 (≈ 64.5 µM)	–	–	–
CCOC(=O)/C=C/c1cnc([N+](=O)[O-])n1C	> 100	100 (≈ 444 µM)	50 (≈ 222 µM)	> 100	100 (≈ 444 µM)	100 (≈ 444 µM)	> 100	100 (≈ 444 µM)	> 100	> 100	50 (≈ 222 µM)	> 100	20 (≈ 88.8 µM)	100 (≈ 444 µM)	> 100	50 (≈ 222 µM)	–	–	–
CC(/C=C/c1cnc([N+](=O)[O-])n1C)=N\N1CCCC(O)C1 (stereo unspecified)	> 100	100 (≈ 341 µM)	20 (≈ 68.2 µM)	> 100	100 (≈ 341 µM)	> 100	> 100	> 100	> 100	20 (≈ 68.2 µM)	50 (≈ 170 µM)	> 100	20 (≈ 68.2 µM)	50 (≈ 170 µM)	> 100	100 (≈ 341 µM)	–	–	–
CC(/C=C/c1cnc([N+](=O)[O-])n1C)=N\N1CCN(CCO)CC1	> 100	> 100	5 (≈ 15.5 µM)	> 100	100 (≈ 310 µM)	100 (≈ 310 µM)	> 100	> 100	> 100	50 (≈ 155 µM)	50 (≈ 155 µM)	> 100	20 (≈ 62 µM)	50 (≈ 155 µM)	> 100	100 (≈ 310 µM)	–	–	–
CCCC/C(=C\c1cnc([N+](=O)[O-])n1C)[N+](=O)[O-]	100 (≈ 393 µM)	1 (≈ 3.93 µM)	5 (≈ 19.7 µM)	20 (≈ 78.7 µM)	2 (≈ 7.87 µM)	5 (≈ 19.7 µM)	50 (≈ 197 µM)	5 (≈ 19.7 µM)	50 (≈ 197 µM)	2 (≈ 7.87 µM)	2 (≈ 7.87 µM)	100 (≈ 393 µM)	10 (≈ 39.3 µM)	50 (≈ 197 µM)	50 (≈ 197 µM)	10 (≈ 39.3 µM)	>2.9	500	–
COC(=O)c1cnc([N+](=O)[O-])n1C	> 100	> 100	5 (≈ 27 µM)	> 100	50 (≈ 270 µM)	> 100	100 (≈ 540 µM)	> 100	100 (≈ 540 µM)	50 (≈ 270 µM)	> 100	> 100	> 50	–	> 100	20 (≈ 108 µM)	–	–	–
CC(/C=C/c1cnc([N+](=O)[O-])n1C)=N\NC(N)=S	> 50	> 50	5 (≈ 18.6 µM)	> 50	> 50	20 (≈ 74.5 µM)	> 50	> 50	> 50	10 (≈ 37.3 µM)	10 (≈ 37.3 µM)	> 50	50 (≈ 186 µM)	100 (≈ 373 µM)	> 50	> 50	–	–	–

Reference: ChEMBL document CHEMBL3244225, “Synthesis and biological activity of some vinyl-substituted 2-nitroimidazoles” (J Med Chem, 1977)
